The source of these data is ChEMBL document CHEMBL4002641, “Indolyl-naphthyl-maleimides as potent and selective inhibitors of protein kinase C-α/β” (Bioorg Med Chem Lett, 2017).

The target of data set [1] is T1, Protein kinase C theta type (Homo sapiens, UniProt Q04759). Briefly: Inhibition of PKCtheta (unknown origin) after 60 mins in presence of [gamma33P]ATP by scintillation proximity assay. Background: Scintillation proximity formats need no separation of bound from free tracer.
Data set [2] concerns the target T2, Protein kinase C alpha type (Homo sapiens, UniProt P17252). Briefly: Inhibition of PKCalpha (unknown origin) after 60 mins in presence of [gamma33P]ATP by scintillation proximity assay.
The target in data set [3] is Protein kinase C eta type (Homo sapiens, UniProt P24723). Briefly: Inhibition of PKCeta (unknown origin) after 60 mins in presence of [gamma33P]ATP by scintillation proximity assay.
Data set [4] addresses Protein kinase C delta type (Homo sapiens, UniProt Q05655). Briefly: Inhibition of PKCdelta (unknown origin) after 60 mins in presence of [gamma33P]ATP by scintillation proximity assay.
Data set [5] concerns the target T1, Protein kinase C theta type. Description: Inhibition of PKCtheta in human Jurkat T cells assessed as reduction in anti-CD3/CD28 antibody-induced T-cell activation by measuring decrease in IL-2 secretion after 5 hrs by luciferase reporter gene assay. It is filed as cell-based. Background: In a reporter assay the amount or activity of a reporter protein is the signal.

Data set [6] has as its system PBMC. Briefly: Inhibition of human PBMC proliferation assessed as decrease in [3H]-TdR uptake after 6 days by mixed lymphocyte reaction assay. It is filed as functional, cell-based.
Data set [7] deals with T3, Protein kinase C epsilon type (Homo sapiens, UniProt Q02156).
T3 sequence (Q02156 whole entry): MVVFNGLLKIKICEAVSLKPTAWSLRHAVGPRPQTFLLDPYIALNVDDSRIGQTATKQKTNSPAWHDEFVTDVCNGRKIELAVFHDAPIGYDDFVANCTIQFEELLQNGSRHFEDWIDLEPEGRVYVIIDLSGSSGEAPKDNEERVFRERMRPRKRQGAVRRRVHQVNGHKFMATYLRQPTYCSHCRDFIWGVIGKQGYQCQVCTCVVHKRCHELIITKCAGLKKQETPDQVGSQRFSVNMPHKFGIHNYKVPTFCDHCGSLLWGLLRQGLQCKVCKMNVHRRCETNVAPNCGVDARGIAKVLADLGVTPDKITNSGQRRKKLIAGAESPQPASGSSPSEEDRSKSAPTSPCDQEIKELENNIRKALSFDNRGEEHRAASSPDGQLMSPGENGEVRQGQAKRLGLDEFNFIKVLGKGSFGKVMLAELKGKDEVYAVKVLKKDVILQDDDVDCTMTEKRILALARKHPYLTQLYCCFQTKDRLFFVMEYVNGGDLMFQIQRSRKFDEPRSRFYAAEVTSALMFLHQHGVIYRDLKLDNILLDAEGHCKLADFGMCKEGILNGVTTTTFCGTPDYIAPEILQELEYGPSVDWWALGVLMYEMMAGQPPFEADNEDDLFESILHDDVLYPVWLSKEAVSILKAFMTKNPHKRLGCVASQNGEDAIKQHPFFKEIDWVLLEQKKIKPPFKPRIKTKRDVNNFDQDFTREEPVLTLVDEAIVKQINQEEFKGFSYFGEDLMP
Briefly: Inhibition of PKCepsilon (unknown origin) after 60 mins in presence of [gamma33P]ATP by scintillation proximity assay.

Data set [8] can be described thus: Aqueous solubility of the compound. It is filed as physicochemical. To be noted: buffer.
The target in data set [9] is T4, Protein kinase C beta type (Homo sapiens, UniProt P05771). Briefly: Inhibition of PKCbeta1 (unknown origin) after 60 mins in presence of [gamma33P]ATP by scintillation proximity assay.
For data set [10], the target named is T5, Cyclin-dependent kinase 2 (Homo sapiens, UniProt P24941). Description: Inhibition of CDK2 (unknown origin).
Data set [11] deals with T4, Protein kinase C beta type. Briefly: Reversible competitive inhibition of PKCbeta1 (unknown origin).
Data set [12] has as its target T5, Cyclin-dependent kinase 2. Briefly: Inhibition of CDK2 (unknown origin) at 1 uM.
Data set [13] has as its target T2, Protein kinase C alpha type. Briefly: Reversible competitive inhibition of PKCalpha (unknown origin).

A word on the IC50: it is the concentration that inhibits the measured activity by half. One may read the Ki as a dissociation constant, usually derived from enzyme kinetics or from competition with a known ligand. Low readings indicate tighter binding, high ones weaker binding. As a reminder, the inhibition is the relative decrease from the control value, in per cent.

T1 sequence (Q04759 whole entry): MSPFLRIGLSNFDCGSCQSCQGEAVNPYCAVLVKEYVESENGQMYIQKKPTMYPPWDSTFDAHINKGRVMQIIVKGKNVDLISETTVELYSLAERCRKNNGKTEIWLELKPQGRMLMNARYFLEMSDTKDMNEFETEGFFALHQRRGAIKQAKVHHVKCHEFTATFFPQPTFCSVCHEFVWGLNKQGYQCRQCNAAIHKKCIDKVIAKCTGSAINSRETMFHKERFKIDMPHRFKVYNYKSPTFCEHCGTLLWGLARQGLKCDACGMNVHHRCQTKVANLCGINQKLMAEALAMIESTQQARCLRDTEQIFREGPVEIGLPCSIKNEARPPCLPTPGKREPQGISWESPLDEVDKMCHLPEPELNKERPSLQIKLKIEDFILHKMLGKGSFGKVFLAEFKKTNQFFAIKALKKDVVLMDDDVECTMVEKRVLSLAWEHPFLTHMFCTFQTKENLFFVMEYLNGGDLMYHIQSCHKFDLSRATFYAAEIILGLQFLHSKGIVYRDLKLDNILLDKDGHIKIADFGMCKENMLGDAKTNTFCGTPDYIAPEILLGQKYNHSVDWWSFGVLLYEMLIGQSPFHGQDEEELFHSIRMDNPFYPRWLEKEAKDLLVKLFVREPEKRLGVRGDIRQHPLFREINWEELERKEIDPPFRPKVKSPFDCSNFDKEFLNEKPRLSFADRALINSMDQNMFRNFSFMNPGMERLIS
Protein kinase C delta type, sequence (Q05655 whole entry): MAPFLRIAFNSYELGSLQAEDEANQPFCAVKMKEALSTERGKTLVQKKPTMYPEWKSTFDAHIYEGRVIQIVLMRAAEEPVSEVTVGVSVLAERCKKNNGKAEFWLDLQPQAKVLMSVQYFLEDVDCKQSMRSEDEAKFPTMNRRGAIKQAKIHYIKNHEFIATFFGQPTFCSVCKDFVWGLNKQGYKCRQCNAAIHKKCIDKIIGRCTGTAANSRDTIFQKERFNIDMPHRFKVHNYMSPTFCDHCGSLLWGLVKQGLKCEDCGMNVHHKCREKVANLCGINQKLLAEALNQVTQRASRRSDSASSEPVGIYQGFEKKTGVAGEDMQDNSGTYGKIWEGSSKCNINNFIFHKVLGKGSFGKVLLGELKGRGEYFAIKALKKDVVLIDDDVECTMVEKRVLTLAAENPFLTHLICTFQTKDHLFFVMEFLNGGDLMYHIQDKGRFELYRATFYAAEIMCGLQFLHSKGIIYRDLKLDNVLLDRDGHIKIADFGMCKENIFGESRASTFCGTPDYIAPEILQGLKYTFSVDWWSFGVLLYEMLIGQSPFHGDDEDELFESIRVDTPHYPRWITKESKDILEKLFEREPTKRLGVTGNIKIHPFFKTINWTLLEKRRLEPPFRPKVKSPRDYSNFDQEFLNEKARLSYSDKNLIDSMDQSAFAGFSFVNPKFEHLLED
Protein kinase C eta type, sequence (P24723 whole entry): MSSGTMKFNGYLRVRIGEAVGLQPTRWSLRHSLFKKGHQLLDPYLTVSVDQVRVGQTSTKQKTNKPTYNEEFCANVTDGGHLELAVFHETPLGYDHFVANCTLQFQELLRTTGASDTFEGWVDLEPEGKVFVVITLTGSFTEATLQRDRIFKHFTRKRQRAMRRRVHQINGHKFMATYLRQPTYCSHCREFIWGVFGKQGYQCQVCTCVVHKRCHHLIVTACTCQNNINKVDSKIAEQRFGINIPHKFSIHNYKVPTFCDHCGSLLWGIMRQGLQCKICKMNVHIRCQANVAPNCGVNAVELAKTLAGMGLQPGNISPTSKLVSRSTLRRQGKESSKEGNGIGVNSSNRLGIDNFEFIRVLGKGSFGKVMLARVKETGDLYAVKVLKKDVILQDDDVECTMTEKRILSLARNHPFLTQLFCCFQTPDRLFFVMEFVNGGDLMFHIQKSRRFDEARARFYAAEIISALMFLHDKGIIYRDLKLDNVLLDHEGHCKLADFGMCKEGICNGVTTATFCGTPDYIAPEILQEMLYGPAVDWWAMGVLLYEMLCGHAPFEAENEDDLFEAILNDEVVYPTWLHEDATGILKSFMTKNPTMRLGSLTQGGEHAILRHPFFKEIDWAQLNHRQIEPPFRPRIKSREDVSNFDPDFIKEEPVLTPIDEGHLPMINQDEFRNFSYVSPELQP
T4 sequence (P05771 whole entry): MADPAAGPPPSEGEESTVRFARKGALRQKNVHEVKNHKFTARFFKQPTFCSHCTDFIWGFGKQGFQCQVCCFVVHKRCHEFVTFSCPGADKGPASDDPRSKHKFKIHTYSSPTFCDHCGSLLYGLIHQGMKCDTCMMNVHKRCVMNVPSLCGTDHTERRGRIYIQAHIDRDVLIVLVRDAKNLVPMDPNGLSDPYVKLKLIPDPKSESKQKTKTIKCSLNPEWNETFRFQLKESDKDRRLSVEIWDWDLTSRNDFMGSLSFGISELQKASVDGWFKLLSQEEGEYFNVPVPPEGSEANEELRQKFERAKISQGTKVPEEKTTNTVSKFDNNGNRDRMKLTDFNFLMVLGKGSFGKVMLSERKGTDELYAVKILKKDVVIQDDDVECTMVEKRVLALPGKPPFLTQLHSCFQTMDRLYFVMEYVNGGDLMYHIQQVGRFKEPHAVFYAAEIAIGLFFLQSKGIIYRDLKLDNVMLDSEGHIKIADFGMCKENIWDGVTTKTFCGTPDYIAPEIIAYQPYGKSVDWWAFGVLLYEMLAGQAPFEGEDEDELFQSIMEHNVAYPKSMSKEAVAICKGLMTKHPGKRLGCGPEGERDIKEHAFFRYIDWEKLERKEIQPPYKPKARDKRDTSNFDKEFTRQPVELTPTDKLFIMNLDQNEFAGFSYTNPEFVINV

As to `CN(C)Cc1ccc2ccc(Cl)c(C3=C(c4c[nH]c5ccccc45)C(=O)NC3=O)c2c1`, the IC50 was 216 nM in [1]; 0.5 nM in [2]; 316 nM in data set [3]; 303 nM in [4]; 708 nM in [5]; 406 nM in data set [6]. For the same compound, the results for the IC50 in data set [7] and in data set [9] were 182 nM and 0.7 nM, respectively. The solubility entry in [8] is recorded as “Insoluble”.

With `CN(C)Cc1ccc2c(C3=C(c4cn(C)c5ccccc45)C(=O)NC3=O)c(Cl)ccc2c1`, the IC50 came out at 3.7 nM in data set [2]; 30 nM in data set [3]; 17 nM in data set [4]; 185 nM in data set [5]; 54 nM in data set [6]; 18 nM in data set [7]. Further, the IC50 in data set [9] was 6.8 nM. The solubility entry in [8] is “Insoluble”.

Consider `Cn1cc(C2=C(c3c(Cl)ccc4ccc(CN)cc34)C(=O)NC2=O)c2ccccc21`, for which the IC50 in data set [1] is more than 316 nM; in data set [2], 4.7 nM; in [3] it was more than 316 nM; in [4] it was 254 nM; in [7] it was more than 316 nM; in [9], 3.3 nM.

Turning to `CC(C)NCc1ccc2ccc(Cl)c(C3=C(c4cn(C)c5ccccc45)C(=O)NC3=O)c2c1`, the 50% inhibitory concentration (IC50) was determined as 101 nM in data set [1]; 2.7 nM in [2]; 182 nM in data set [3]; 79 nM in data set [4]; 73 nM in data set [7]; 2.9 nM in data set [9].

Turning to `Cn1cc(C2=C(c3cccc4ccc(CN)cc34)C(=O)NC2=O)c2ccccc21`, the concentration for half-maximal inhibition (IC50) in [1] is more than 316 nM; in data set [2] it was 73 nM; in data set [3], more than 316 nM; in [4], more than 316 nM; in [7], more than 316 nM; in data set [9], 93 nM.

For `NCc1ccc2cccc(C3=C(c4c[nH]c5ccccc45)C(=O)NC3=O)c2c1`, the IC50 in [1] is more than 316 nM; in [2], 36 nM; in data set [3] it was more than 316 nM; in data set [4], more than 316 nM; in [7] it was more than 316 nM; in data set [9], 75 nM.

Consider `CC(=O)N(C)Cc1ccc2ccc(Cl)c(C3=C(c4cn(C)c5ccccc45)C(=O)NC3=O)c2c1`, for which the IC50 in data set [1] was more than 316 nM; in data set [2], 63 nM; in data set [3], more than 316 nM; in [4], 284 nM; in [7], more than 316 nM; in data set [9], 41 nM.

Consider `Cc1ccc2ccc(CN)cc2c1C1=C(c2c[nH]c3ccccc23)C(=O)NC1=O`, for which the IC50 was more than 316 nM in data set [1]; 49 nM in data set [2]; more than 316 nM in data set [3]; more than 316 nM in data set [4]; more than 316 nM in data set [7]; 43 nM in data set [9].

Regarding `Cn1cc(C2=C(c3cccc4cc(CN)ccc34)C(=O)NC2=O)c2ccccc21`, the 50% inhibitory concentration (IC50) in [1] worked out at 276 nM; in data set [2] it was 136 nM; in data set [3], 308 nM; in data set [4], 92 nM; in data set [7] it was 225 nM; in data set [9] it was 133 nM.

With `CNCc1ccc2ccc(Cl)c(C3=C(c4cn(C)c5ccccc45)C(=O)NC3=O)c2c1`, the concentration for half-maximal inhibition (IC50) was found to be 21 nM in data set [1]; 0.5 nM in data set [2]; 34 nM in [3]; 15 nM in data set [4]; 30 nM in [7]; 1.4 nM in data set [9].

As for `CN(Cc1ccc2ccc(Cl)c(C3=C(c4cn(C)c5ccccc45)C(=O)NC3=O)c2c1)C1CC1`, the concentration for half-maximal inhibition (IC50) in [1] is more than 316 nM; in data set [2], 63 nM; in [3], more than 316 nM; in data set [4], more than 316 nM; in data set [5], more than 3550 nM; in [7], more than 316 nM. Further, the 50% inhibitory concentration (IC50) in [9] was found to be 60 nM. Also, in data set [8], the solubility entry is “Insoluble”.

Regarding `Cc1ccc2ccc(CN)cc2c1C1=C(c2cn(C)c3ccccc23)C(=O)NC1=O`, the IC50 in [1] was more than 316 nM; in data set [2], 95 nM; in [3] it was more than 316 nM; in data set [4], more than 316 nM; in data set [7], more than 316 nM; in data set [9] it was 42 nM.

In the case of `COCCNCc1ccc2ccc(Cl)c(C3=C(c4cn(C)c5ccccc45)C(=O)NC3=O)c2c1`, the IC50 amounted to 21 nM in data set [1]; 2.8 nM in [2]; 206 nM in data set [3]; 39 nM in data set [4]; 110 nM in [7]; 3.1 nM in [9].

Regarding `Cn1cc(C2=C(c3c(Cl)ccc4ccc(CN5CCC5)cc34)C(=O)NC2=O)c2ccccc21`, the concentration for half-maximal inhibition (IC50) in data set [1] was 254 nM; in data set [2] it was 3.4 nM; in data set [3], 316 nM; in data set [4], 230 nM; in [7], 223 nM; in data set [9], 2 nM.

In the case of `CN(C)Cc1ccc2ccc(Cl)c(C3=C(c4cn(C)c5ccccc45)C(=O)NC3=O)c2c1`, the IC50 in data set [1] amounted to 263 nM; in data set [2], 4 nM; in data set [10], 220 nM; in data set [3], 565 nM; in [4] it was 214 nM; in [5] it was 402 nM. In addition, the half-maximal inhibitory concentration (IC50) amounted to 277 nM in data set [6], 402 nM in data set [7] and 3.7 nM in data set [9]. Moreover, the Ki in data set [11] turned out to be 0.5 nM; in [13], 1 nM. The compound also returned an inhibition in data set [12] of more than 50%. In data set [8], the solubility entry is given as “Insoluble”.

Take `CN1CCN(c2nc(C3=C(c4c[nH]c5ccccc45)C(=O)NC3=O)c3ccccc3n2)CC1` [SOTRASTAURIN]: the IC50 worked out at 81 nM in data set [5] and 28 nM in data set [6].

For `CN(C)Cc1ccc2c(C3=C(c4c[nH]c5ccccc45)C(=O)NC3=O)c(Cl)ccc2c1`, the IC50 in data set [1] came out at 12 nM; in data set [2] it was 1.8 nM; in data set [5] it was 156 nM; in [6], 59 nM; in [7], 4.3 nM; in data set [9], 3.4 nM. Further, the solubility entry in [8] is “Insoluble”.
